Test results: the supplement of paper PMC12463676, “Small-molecule dissolution of stress granules by redox modulation benefits ALS models” (Nature Chemical Biology, 2025)

What was measured:
lipoamide = compound: NC(=O)CCCCC1CCSS1 [lipoamide]; test: thermal stability z-score vs DMSO; higher = more thermally stabilized by treatment; details: HeLa, lipoamide concentration 100 µM
Description: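 Cellular thermal proteome profiling in HeLa cells. Cells were treated with 100 µM lipoamide for 1 h, with or without 1 mM arsenate for a further 1 h, then heated to ten temperatures (37-66.3 °C), and soluble protein was quantified by TMT mass spectrometry relative to 0.1% DMSO controls. The thermal stability score (sum of log2 fold changes minus the abundance score) was transformed to a z-score; mean of n = 3 experiments.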

potassium arsenate = compound: O=[As]([O-])(O)O.[K+] [potassium arsenate]; test: as above; details: HeLa; arsenate concentration 1 mM
Description: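 Cellular thermal proteome profiling in HeLa cells treated with 1 mM arsenate for 1 h (DMSO pretreatment), heated to ten temperatures (37-66.3 °C). Soluble protein was quantified by TMT mass spectrometry relative to DMSO controls; the thermal stability score was transformed to a z-score; mean of n = 3 experiments.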

[1] = arsenate co-treatment: 1 mM arsenate 1 h
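Further: each temperature applied for 3 min, abundance score taken as mean log2 fold change at the two lowest temperatures, z-score obtained by mean subtraction and division by SD.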

Chain of UniProt Q9NVV0 (Q9NVV0 whole entry): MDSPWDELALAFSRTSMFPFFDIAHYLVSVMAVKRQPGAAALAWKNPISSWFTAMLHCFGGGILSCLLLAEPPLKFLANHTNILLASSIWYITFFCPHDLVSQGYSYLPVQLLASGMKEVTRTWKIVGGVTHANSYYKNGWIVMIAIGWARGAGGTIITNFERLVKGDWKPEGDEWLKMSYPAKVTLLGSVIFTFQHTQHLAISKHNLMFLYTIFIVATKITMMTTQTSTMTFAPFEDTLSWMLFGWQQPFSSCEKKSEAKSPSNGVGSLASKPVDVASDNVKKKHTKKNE
Chain of UniProt O95373 (O95373 whole entry): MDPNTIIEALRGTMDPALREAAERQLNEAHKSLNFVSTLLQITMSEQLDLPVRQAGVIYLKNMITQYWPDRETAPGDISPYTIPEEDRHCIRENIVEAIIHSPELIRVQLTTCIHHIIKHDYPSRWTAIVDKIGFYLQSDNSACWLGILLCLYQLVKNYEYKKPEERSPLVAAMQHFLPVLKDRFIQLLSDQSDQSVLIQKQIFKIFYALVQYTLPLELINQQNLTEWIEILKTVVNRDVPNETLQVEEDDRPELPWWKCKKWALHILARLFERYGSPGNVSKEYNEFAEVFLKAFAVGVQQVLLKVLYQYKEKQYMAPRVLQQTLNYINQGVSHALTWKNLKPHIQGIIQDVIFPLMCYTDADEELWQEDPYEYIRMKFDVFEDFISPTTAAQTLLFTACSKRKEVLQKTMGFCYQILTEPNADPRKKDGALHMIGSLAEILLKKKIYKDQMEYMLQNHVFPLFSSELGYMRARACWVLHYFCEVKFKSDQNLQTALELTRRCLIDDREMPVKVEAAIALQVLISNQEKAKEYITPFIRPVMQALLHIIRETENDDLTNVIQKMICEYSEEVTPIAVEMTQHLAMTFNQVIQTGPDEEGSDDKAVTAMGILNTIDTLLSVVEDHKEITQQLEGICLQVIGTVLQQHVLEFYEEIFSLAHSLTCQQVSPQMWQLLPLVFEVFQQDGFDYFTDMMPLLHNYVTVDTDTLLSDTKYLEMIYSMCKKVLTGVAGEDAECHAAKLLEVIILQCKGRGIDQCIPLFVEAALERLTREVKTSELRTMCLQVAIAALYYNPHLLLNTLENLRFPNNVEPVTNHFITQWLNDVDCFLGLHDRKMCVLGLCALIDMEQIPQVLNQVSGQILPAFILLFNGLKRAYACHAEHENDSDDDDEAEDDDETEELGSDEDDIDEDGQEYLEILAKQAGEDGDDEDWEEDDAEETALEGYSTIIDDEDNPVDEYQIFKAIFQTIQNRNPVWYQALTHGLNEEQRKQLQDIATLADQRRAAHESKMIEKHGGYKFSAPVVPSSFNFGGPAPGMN
Chain of UniProt Q8TBN0 (Q8TBN0 whole entry): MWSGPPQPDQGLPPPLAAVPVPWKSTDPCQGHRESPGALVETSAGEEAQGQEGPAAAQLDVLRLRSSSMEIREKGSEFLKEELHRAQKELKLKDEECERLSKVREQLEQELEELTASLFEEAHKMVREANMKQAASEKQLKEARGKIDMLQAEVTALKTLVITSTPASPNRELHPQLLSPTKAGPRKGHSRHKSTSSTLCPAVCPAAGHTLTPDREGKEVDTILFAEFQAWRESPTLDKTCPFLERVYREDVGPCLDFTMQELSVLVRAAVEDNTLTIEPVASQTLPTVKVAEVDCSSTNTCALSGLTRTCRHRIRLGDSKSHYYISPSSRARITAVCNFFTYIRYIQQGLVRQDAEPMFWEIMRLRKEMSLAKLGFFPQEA
Chain of UniProt Q10570 (Q10570 whole entry): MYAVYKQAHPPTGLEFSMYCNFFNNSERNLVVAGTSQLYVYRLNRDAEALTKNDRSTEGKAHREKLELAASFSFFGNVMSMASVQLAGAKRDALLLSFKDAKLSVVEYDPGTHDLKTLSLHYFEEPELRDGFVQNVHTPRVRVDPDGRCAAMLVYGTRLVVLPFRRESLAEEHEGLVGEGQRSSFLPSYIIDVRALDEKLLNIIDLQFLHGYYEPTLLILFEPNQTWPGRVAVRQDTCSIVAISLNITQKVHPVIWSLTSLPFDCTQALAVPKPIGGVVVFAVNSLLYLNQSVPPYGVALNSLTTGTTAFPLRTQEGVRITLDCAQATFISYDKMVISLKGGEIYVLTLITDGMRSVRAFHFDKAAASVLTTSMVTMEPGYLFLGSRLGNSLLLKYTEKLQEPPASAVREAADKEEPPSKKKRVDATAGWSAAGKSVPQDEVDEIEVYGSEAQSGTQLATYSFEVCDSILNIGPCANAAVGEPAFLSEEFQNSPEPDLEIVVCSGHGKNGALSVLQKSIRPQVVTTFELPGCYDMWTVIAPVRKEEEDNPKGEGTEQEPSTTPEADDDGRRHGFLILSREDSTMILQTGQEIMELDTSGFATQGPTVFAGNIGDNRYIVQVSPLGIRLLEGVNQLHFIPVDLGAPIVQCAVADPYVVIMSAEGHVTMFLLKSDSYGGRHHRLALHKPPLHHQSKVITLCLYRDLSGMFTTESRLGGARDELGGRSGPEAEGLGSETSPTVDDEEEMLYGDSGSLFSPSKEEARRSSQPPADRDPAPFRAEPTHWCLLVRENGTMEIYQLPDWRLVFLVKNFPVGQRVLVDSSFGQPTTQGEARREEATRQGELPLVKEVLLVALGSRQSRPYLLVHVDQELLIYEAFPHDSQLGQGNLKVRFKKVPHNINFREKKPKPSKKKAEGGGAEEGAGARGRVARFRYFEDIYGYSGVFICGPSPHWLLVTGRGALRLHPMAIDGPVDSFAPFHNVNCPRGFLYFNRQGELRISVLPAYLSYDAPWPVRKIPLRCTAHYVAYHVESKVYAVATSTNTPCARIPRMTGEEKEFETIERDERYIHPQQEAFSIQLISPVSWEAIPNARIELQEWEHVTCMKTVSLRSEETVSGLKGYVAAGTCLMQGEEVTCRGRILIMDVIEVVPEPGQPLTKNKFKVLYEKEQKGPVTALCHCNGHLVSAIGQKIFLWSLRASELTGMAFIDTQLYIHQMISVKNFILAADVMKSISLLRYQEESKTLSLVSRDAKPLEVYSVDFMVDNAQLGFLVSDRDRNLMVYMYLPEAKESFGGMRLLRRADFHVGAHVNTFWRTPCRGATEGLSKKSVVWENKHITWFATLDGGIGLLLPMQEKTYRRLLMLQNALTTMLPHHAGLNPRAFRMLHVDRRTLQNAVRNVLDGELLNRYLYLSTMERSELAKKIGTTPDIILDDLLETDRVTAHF
Chain of UniProt Q5T1V6 (Q5T1V6 whole entry): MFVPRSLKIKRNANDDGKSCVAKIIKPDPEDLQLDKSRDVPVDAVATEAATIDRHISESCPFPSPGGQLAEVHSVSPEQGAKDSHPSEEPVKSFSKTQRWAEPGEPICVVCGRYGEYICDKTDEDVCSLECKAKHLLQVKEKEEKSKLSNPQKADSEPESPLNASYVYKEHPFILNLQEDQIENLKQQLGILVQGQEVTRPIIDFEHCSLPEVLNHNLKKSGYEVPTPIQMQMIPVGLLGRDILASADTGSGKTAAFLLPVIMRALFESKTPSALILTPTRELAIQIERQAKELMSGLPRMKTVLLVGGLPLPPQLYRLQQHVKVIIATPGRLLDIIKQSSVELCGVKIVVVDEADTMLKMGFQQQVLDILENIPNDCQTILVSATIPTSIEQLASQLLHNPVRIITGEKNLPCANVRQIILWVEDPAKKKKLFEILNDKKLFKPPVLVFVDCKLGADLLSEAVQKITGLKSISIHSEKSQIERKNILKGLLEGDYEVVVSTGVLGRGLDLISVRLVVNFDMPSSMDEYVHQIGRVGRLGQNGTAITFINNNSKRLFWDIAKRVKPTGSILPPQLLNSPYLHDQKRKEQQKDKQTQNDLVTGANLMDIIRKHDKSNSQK
Chain of UniProt O60488 (O60488 whole entry): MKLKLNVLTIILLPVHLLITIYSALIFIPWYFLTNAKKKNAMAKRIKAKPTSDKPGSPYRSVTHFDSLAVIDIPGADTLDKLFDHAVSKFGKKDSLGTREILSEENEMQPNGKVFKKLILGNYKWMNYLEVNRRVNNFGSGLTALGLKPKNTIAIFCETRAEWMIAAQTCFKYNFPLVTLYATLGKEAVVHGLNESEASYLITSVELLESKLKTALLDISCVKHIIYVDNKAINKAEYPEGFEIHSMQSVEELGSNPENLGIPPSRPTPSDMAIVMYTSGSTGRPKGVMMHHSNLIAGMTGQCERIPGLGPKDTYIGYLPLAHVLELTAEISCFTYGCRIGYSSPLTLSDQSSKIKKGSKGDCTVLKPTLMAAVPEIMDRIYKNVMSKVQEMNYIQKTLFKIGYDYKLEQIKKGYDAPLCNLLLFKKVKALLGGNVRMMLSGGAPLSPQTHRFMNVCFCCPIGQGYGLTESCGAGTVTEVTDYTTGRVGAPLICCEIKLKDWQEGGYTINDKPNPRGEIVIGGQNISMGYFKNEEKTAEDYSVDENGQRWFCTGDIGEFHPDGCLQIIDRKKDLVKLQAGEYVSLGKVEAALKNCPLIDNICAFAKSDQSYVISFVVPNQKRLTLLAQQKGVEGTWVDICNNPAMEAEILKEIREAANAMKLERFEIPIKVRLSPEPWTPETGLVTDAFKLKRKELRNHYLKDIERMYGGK
Chain of UniProt Q658P3 (Q658P3 whole entry): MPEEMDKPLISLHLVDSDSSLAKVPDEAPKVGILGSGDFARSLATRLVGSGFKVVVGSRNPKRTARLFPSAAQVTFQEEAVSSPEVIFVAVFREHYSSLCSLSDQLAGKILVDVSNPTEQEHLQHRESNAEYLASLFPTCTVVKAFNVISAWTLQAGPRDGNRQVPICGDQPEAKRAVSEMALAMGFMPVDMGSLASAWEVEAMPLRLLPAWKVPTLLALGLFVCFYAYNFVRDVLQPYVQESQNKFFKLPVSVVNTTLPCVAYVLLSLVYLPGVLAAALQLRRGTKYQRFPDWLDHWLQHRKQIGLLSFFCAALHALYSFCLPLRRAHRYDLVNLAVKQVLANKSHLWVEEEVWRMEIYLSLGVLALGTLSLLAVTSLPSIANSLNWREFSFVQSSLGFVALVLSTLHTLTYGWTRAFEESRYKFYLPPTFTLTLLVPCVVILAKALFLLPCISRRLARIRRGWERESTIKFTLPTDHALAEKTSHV
Chain of UniProt Q9NRP2 (Q9NRP2 whole entry): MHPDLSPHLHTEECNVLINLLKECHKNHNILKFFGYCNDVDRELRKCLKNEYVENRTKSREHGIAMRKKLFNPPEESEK

Target | thermal stability z-score (lipoamide; [1]) | thermal stability z-score (lipoamide; arsenate co-treatment: none) | thermal stability z-score (potassium arsenate)
LPCAT4 (UniProt Q643R3) | -0.953 | 0.367 | 0.519
ENOPH1 (UniProt Q9UHY7) | 0.0377 | -0.118 | -0.296
ZW10 (UniProt O43264) | -0.0261 | -0.137 | 0.692
ME2 (UniProt P23368) | 0.621 | -0.0427 | -1.26
RPS23 (UniProt P62266) | -0.0441 | 0.207 | -0.0437
CMC2 (UniProt Q9NRP2) | 0.275 | 0.104 | 0.218
DHCR7 (UniProt Q9UBM7) | -0.283 | -0.384 | 0.411
PRKRIP1 (UniProt Q9H875) | 0.524 | 0.599 | 0.247
C12ORF43 (UniProt Q96C57) | 0.941 | -0.0235 | -1.08
TUT1 (UniProt Q9H6E5) | 0.0998 | -0.00913 | -0.479
ERGIC2 (UniProt Q96RQ1) | -0.942 | -0.866 | -0.232
CPSF1 (UniProt Q10570) | 0.324 | 0.168 | -0.123
ACOT13 (UniProt Q9NPJ3) | -0.279 | -0.198 | -0.202
SCRN3 (UniProt Q0VDG4) | -0.445 | -0.169 | -0.0506
NDUFAF2 (UniProt Q8N183) | 0.429 | 0.317 | 0.094
STEAP3 (UniProt Q658P3) | 0.104 | 0.572 | -0.122
CHCHD2 (UniProt Q9Y6H1) | 1.56 | 1.34 | 0.592
GK (UniProt P32189) | 0.371 | 0.195 | 0.46
SORBS3 (UniProt O60504) | -0.117 | 0.0779 | -0.323
UBXN1 (UniProt Q04323) | 0.155 | 0.25 | -0.0349
CALR (UniProt P27797) | -4.25 | -3.48 | 0.147
PFKL (UniProt P17858) | 0.344 | 0.367 | 0.476
C6ORF106 (UniProt Q9H6K1) | -0.69 | -0.401 | 0.242
MRPS10 (UniProt P82664) | -0.41 | -0.358 | -0.309

Target | thermal stability z-score (lipoamide; [1]) | thermal stability z-score (lipoamide; arsenate co-treatment: none) | thermal stability z-score (potassium arsenate)
SLC38A1 (UniProt Q9H2H9) | 0.457 | 0.549 | 1.25
CNOT7 (UniProt Q9UIV1) | -0.248 | 0.895 | 1.32
SLC25A12 (UniProt O75746) | -0.149 | -0.154 | -0.0761
RABL3 (UniProt Q5HYI8) | -0.437 | -0.307 | -0.0747
ACAT1 (UniProt P24752) | 0.399 | 1.07 | 0.878
FIBP (UniProt O43427) | 0.453 | 0.0779 | 0.125
ACTR8 (UniProt Q9H981) | -0.154 | -0.0898 | -0.347
LSM5 (UniProt Q9Y4Y9) | -0.69 | 0.0925 | -1.23
PPIL1 (UniProt Q9Y3C6) | -0.0684 | -0.42 | -0.489
ARFGEF1 (UniProt Q9Y6D6) | -0.0608 | -0.273 | -0.154
IGF2BP3 (UniProt O00425) | -0.521 | -0.325 | -0.579
EIF2AK3 (UniProt Q9NZJ5) | -0.372 | -0.109 | -0.317
PSMA4 (UniProt P25789) | 1.29 | 0.788 | 0.411
KLC4 (UniProt Q9NSK0) | -1.48 | 0.259 | 0.297
TANC1 (UniProt Q9C0D5) | 0.142 | 1.34 | 1.14
QRSL1 (UniProt Q9H0R6) | -0.401 | -2.57 | 0.708
CAND1 (UniProt Q86VP6) | 0.463 | 0.225 | -0.122
ACSL4 (UniProt O60488) | 0.208 | 0.296 | -1.66
ARHGAP4 (UniProt P98171) | -0.00218 | 0.000585 | 0.0513
HNRNPD (UniProt Q14103) | 0.285 | -0.223 | -0.562
RPS14 (UniProt P62263) | 0.641 | 0.21 | -0.926
SLC5A3 (UniProt P53794) | -0.536 | -0.363 | -1.12
RAB3IL1 (UniProt Q8TBN0) | -0.235 | 0.559 | -0.89
UROS (UniProt P10746) | -0.306 | -0.445 | -2.43

Target | thermal stability z-score (lipoamide; [1]) | thermal stability z-score (lipoamide; arsenate co-treatment: none) | thermal stability z-score (potassium arsenate)
TRMU (UniProt O75648) | -0.59 | -0.509 | -0.558
RPL8 (UniProt P62917) | 0.0892 | -0.22 | -1.07
SLU7 (UniProt O95391) | -0.353 | -0.364 | -0.0775
GOLPH3 (UniProt Q9H4A6) | -0.65 | -0.881 | -0.641
GTF2E2 (UniProt P29084) | -0.693 | -0.556 | 0.0275
ZMYM1 (UniProt Q5SVZ6) | 0.0919 | 0.0471 | -0.798
METTL7A (UniProt Q9H8H3) | 2.84 | 2.54 | 0.632
COASY (UniProt Q13057) | -0.525 | -0.09 | 0.944
DDX59 (UniProt Q5T1V6) | -0.512 | -0.363 | -1.01
HEXIM2 (UniProt Q96MH2) | -0.264 | 0.637 | 0.53
C18ORF25 (UniProt Q96B23) | -0.688 | -0.189 | 0.363
SMARCB1 (UniProt Q12824) | -0.25 | -0.186 | -0.198
GSN (UniProt P06396) | 0.0431 | -0.257 | 0.0381
CHD9 (UniProt Q3L8U1) | -0.0359 | -0.0662 | 0.384
ATP6AP1 (UniProt Q15904) | -0.952 | -0.601 | 0.569
IPO7 (UniProt O95373) | 2.63 | 0.4 | -0.418
PRG4 (UniProt Q92954) | -2.2 | -2.18 | 0.248
TLK2 (UniProt Q86UE8) | -0.838 | 0.0336 | 0.502
ORC6 (UniProt Q9Y5N6) | -0.246 | -0.0524 | -1.11
TMEM38B (UniProt Q9NVV0) | 0.603 | -0.085 | 0.654
FAM234A (UniProt Q9H0X4) | -0.353 | -0.499 | -0.743
FSTL3 (UniProt O95633) | -3.19 | -2.34 | 0.0815
SNRNP70 (UniProt P08621) | -0.195 | -0.247 | -0.58
